The source of these data is patent US6914121B2, “PEG-LHRH analog conjugates” (Applied Research Systems Ars Holding N.V., priority 1998, dated 2005).

Converted amounts (≈) assume the structure as drawn. Square brackets hold non-standard residues; d marks the D form. Peptide text beside a SMILES is read from it. * marks the point of attachment. Phe(4-Cl) = N[CH](Cc1ccc(Cl)cc1)C(=O)O; 2Nal = N[CH](Cc1ccc2ccccc2c1)C(=O)O; Lys(iPr) = CC(C)NCCCC[CH](N)C(=O)O; 3Pal = N[CH](Cc1cccnc1)C(=O)O; Nicotinoyl = O=C(c1cccnc1)*

Series [1] in a line: Solubility of antide in isotonic media. The class given is physicochemical.
The conditions of series [2]: previous formulations, e.g. antide 1 mg/ml in 5% glucose; cited from earlier work.

As to `CC(=O)NC(Cc1ccc2ccccc2c1)C(=O)NC(Cc1ccc(Cl)cc1)C(=O)NC(Cc1cccnc1)C(=O)NC(CO)C(=O)NC(CCCCNC(=O)c1cccnc1)C(=O)NC(CCCCNC(=O)c1cccnc1)C(=O)NC(CC(C)C)C(=O)NC(CCCCNC(C)C)C(=O)N1CCCC1C(=O)NC(C)C(N)=O` (stereo not drawn) [antide] (Ac-[2Nal][Phe(4-Cl)][3Pal]SK(Nicotinoyl)K(Nicotinoyl)L[Lys(iPr)]PA-NH2; configuration not given here), the solubility in series [1] (0.9% NaCl solution) is 25 µg/mL (≈ 15.7 µM); in series [1] (phosphate buffered saline), 16 µg/mL (≈ 10.1 µM). For the same compound, the bioavailability result in series [2] is listed as “poor bioavailability”.

One may read the solubility as the concentration that dissolves in the medium under given conditions. A higher solubility goes with much dissolved substance.
